Where a name gives a salt, the structure may show the parent alone.
Columns and labels:
alkaline phosphatase [1] = test: Kinetic rate of Thymol Blue release at 600 nm from substrate with serum alkaline phosphatase; format: biochemical; settings: for absorbance rate at 600 nm: 0.1 ml Validate A, 25° C.
Experimental: According to the test procedure of the subject invention, Thymol Blue Monophosphate is hydrolyzed by alkaline phosphatase to Thymol Blue in the presence of phosphorylatable diethanolamine buffer at pH 10.2. The color produced as a result thereof is proportional to enzyme present and the average change in absorbance per minute (ΔA/min) is determined at a wavelength of 600 nm.
Other amino alcohol buffers which can be phosphorylated and which can be used in this test are, for example, 2-ethylaminoethanol, 3-dimethylamino-1, 2-propanediol, 2-methylaminoethanol, those listed by Elias Amador, Clinical Chemistry, 18, 94 (1972) and the like. The amino alcohol buffer is present in an amount sufficient to raise the pH of the reaction mixture to about 10.2. The magnesium activator is used in an amount sufficient to activate the alkaline phosphatase enzyme in the sample to be tested. The concentration of magnesium ion in the substrate reagent is about 1.5 millimoles per liter. The concentration of Thymol Blue Monophosphate in the reagent is not critical but must be sufficient to permit a kinetic reaction to proceed over a period of time without the substrate being exhausted. The preferred concentration of this material is between 1 and 3 millimoles per liter. The serum sample to be tested is contacted with the substrate reagent at a given temperature which may be from about 22° to about 40° C. but preferably at 30° C. or 37° C. While the temperature affects the rate of reaction, the particular temperature used, within the limits of the stability of the sample, is not critical hereto. The average change in absorbance per minute (ΔA/min) at 600 nm is then determined in a spectrophotometer capable of reading absorbance at 600 nm and maintaining constant temperature in the cuvet compartment. By definition, one unit of alkaline phosphatase activity is the amount of enzyme that will hydrolyze one micromole of Thymol Blue Monophosphate to Thymol Blue in one minute at 30° C. The enzyme activity is calculated by the following formula: [formula] where: U/liter =units of enzyme activity per liter at 30° C.

[2] = Storage stability of substrate / reagent (absorbance at 600 nm, TLC); format: physicochemical
[3] = Solubility and physical properties; format: physicochemical
alkaline phosphatase [4] = biological target: T1, alkaline phosphatase (Homo sapiens, UniProt P05186); test: Serum Alkaline Phosphatase End Point Assay; format: biochemical; settings: 1 ml reagent + 0.1 ml serum sample, 10 minutes at 37° C., stopped with NaOH/Na2CO3
T1 construct: from tissue; host or cells: serum
T1 sequence (P05186 18-501 limits assumed): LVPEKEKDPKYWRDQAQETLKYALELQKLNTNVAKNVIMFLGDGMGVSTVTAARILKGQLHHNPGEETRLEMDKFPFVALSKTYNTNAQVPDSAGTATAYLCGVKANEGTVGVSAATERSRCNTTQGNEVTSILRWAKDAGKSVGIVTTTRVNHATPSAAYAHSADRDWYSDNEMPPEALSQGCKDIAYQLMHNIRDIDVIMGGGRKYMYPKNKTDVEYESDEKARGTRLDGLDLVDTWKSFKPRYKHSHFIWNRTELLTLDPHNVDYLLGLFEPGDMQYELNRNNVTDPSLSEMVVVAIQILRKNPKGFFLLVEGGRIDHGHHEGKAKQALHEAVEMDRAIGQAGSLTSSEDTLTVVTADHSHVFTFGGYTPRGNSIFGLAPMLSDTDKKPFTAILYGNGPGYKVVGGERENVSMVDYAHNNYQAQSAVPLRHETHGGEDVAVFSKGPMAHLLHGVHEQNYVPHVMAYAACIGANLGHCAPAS
Experimental: If so desired an end-point procedure may be employed for determination of serum alkaline phosphatase activity employing Thymol Blue Monophosphate as the substrate. In this instance, the test serum sample is added to the diethanolamine buffered Thymol Blue Monophosphate substrate solution and the reaction is terminated after 10 minutes time by addition of an alkaline reagent such as, for example, 0.1M NaOH and 0.1M Na2 CO3. The absorbance of the sample is read at 600 nm and the enzyme activity is determined from a standard curve prepared from a Thymol Blue standard. The standard curve is prepared by measuring absorbance of dilutions of a known standard and plotting the measured absorbance against the calculated enzyme activity in units per liter.
A substrate for measurement of alkaline phosphatase by the end-point method prepared identical to that of example XVI. One ml of the reagent was placed in a suitable 10 ml tube for measurement of the test specimen and one ml of the reagent was placed in a second tube for measurement of the reagent blank. […] The reagent blank solution was used to set the spectrophotometer at 0 absorption and the specimen tube was then measured and found to have an absorption of 0.329 at 600 nm. From a standard curve constructed from known concentrations of Thymol Blue an activity of alkaline phosphatase of 38 U/liter was determined.

acid phosphatase = test: Acid Phosphatase - End Point Assay; format: biochemical; settings: 1.2 mmol/liter substrate, 20 minutes 37° C.
Experimental: An end-point procedure may be employed for determination of acid phosphatase activity employing Thymol Blue Monophosphate as the substrate. In this instance, the test serum sample is added to a Thymol Blue Monophosphate solution buffered to a pH of about 5 and the reaction is terminated by addition of an alkaline reagent after 20 minutes reaction time. The absorbance of the sample is then read at 600 nm and the acid phosphatase enzyme activity is determined from a standard curve prepared from a Thymol Blue standard as described above.
A reagent was prepared containing 1.2 mmol/liter of Thymol Blue Monophosphate, 0.05 M Citrate buffer pH 5.0, and 0.1 % non inonic detergent, Tergitol NPX (Union Carbide Corporation).
One ml of this substrate reagent solution was placed in each of two test tubes which were warmed to 37° C. for 5 minutes. To one of the test tubes was added 0.2 ml of a serum sample containing an elevated level of acid phosphatase. The mixture was then permitted to stand at 37° C. for 20 minutes at which time 3.0 mls of alkali reagent (0.1 m Na2 CO3 + 0.1M NaOH) was added to stop the reaction. […]
The absorption of each solution was measured at 600 nm against distilled water. […] From standard curve, the acid phosphatase activity of the serum was calculated to be 6.5 U/liter.

[5] = substrate (not freeze-dried) in DEA buffer

Cc1cc(O)c(C(C)C)cc1C1(c2cc(C(C)C)c(OP(=O)(O)O)cc2C)OS(=O)(=O)c2ccccc21 (stereo not drawn) [XIII, Thymol Blue Monophosphate, Tris (hydroxymethyl)aminomethane Salt]
substrate activity with alkaline phosphatase (alkaline phosphatase [1]; aqueous solution of the salt, clear amber liquid): potent substrate activity | absorbance rate at 600 nm (alkaline phosphatase [1]; freeze-dried reagent reconstituted): 0.0552 min⁻¹ | absorbance rate at 600 nm (alkaline phosphatase [1]; [5]): 0.0600 min⁻¹

Cc1cc(O)c(C(C)C)cc1C1(c2cc(C(C)C)c(OP(=O)(O)O)cc2C)OS(=O)(=O)c2ccccc21 (stereo not drawn) [IV, Thymol Blue Monophosphate in Diethanolamine Buffer]
rate at 600 nm (alkaline phosphatase [1]; 2.9 ml test volume in 1.0M DEA buffer pH 10.2, 0.1 ml Lederzyme Control Sera, 30° C.): 0.037 min⁻¹ | absorbance at 600 nm of buffered substrate, initial ([2]; 2.9 ml test volume, 1.0M DEA buffer pH 10.2, fresh): 0.131 | frozen buffered substrate after storage (absorbance) ([2]; frozen, 6 months): remained unchanged | activity toward alkaline phosphatase after storage ([2]; refrigerated at 2° to 8° C. over 6 months): remained unchanged | absorbance at 600 nm of buffered substrate after storage ([2]; refrigerated at 2° to 8° C. over 6 months, increase due to gradual hydrolysis): approximately 0.550

Cc1cc(O)c(C(C)C)cc1C1(c2cc(C(C)C)c(OP(=O)(O)O)cc2C)OS(=O)(=O)c2ccccc21 (stereo not drawn) [I, Thymol Blue Monophosphate, Sodium Salt Solution]
rate of reaction at 600 nm (alkaline phosphatase [1]; 2 ml working reagent (DEA buffer pH 10.2) + 50 μl Validate A control serum, 30° C.): 0.0308 min⁻¹

Cc1cc(O)c(C(C)C)cc1C1(c2cc(C(C)C)c(OP(=O)(O)O)cc2C)OS(=O)(=O)c2ccccc21 (stereo not drawn) [VIII, Sodium Thymol Blue Monophosphate Solution]
rate at 600 nm (alkaline phosphatase [1]; 1 ml substrate solution + 1 ml 0.6 M DEA buffer pH 10.2, 0.1 ml Validate A, temperature not given): 0.0758 min⁻¹ | solubility in absolute ethanol ([3]; yellow orange solid): slightly soluble | solubility in water ([3]; yellow orange solid): readily soluble

Cc1cc(O)c(C(C)C)cc1C1(c2cc(C(C)C)c(OP(=O)(O)O)cc2C)OS(=O)(=O)c2ccccc21 (stereo not drawn) [XII, Thymol Blue Monophosphate Ammonium Salt]
absorbance rate at 600 nm (alkaline phosphatase [1]; substrate (not freeze-dried) in DEA buffer, Monophosphate Ammonium Salt): 0.0486 min⁻¹

Cc1cc(O)c(C(C)C)cc1C1(c2cc(C(C)C)c(OP(=O)(O)O)cc2C)OS(=O)(=O)c2ccccc21 (stereo not drawn) [Thymol Blue Monophosphate]
change in absorbance (ΔA/min) at 600 nm (alkaline phosphatase [1]; 2 ml substrate 1.5 mmol/liter, DEA buffer pH 10.2, MgCl2, 0.05 ml serum to be tested, 30° C.): 0.022 | absorption at 600 nm of specimen tube against reagent blank (alkaline phosphatase [4]): 0.329 | absorption at 600 nm of test serum sample (acid phosphatase; citrate buffer pH 5.0, 0.2 ml serum with elevated acid phosphatase, against distilled water): 0.364 | net increase in absorption over blank (acid phosphatase; citrate buffer pH 5.0, 0.2 ml serum): 0.253 absorption units

Cc1cc(O)c(C(C)C)cc1C1(c2cc(C(C)C)c(OP(=O)(O)O)cc2C)OS(=O)(=O)c2ccccc21 (stereo not drawn) [XI, Thymol Blue Monophosphate Sodium Salt Solution]
absorbance rate at 600 nm (alkaline phosphatase [1]; [5]): 0.0577 min⁻¹

Cc1cc(O)c(C(C)C)cc1C1(c2cc(C(C)C)c(OP(=O)(O)O)cc2C)OS(=O)(=O)c2ccccc21 (stereo not drawn) [II, Thymol Blue Monophosphate (AMPD Salt)]
performance as substrate for alkaline phosphatase (release of Thymol Blue) (alkaline phosphatase [1]; pH 10.2 diethanolamine buffer with magnesium chloride, sera containing alkaline phosphatase): performed as a substrate for alkaline phosphatase

Cc1cc(O)c(C(C)C)cc1C1(c2cc(C(C)C)c(OP(=O)(O)O)cc2C)OS(=O)(=O)c2ccccc21 (stereo not drawn) [III, Phosphorylated Thymol Blue]
absorbance rate (ΔA/min.) at 600 nm (alkaline phosphatase [1]; 2 mg solid in 2.9 ml diethanolamine buffer pH 10.2, 0.1 ml Validate A): 0.0180 min⁻¹ | absorbance rate (ΔA/min.) at 600 nm (alkaline phosphatase [1]; 5 mg sample in diethanolamine buffer pH 10.2, 0.1 ml Validate A): 0.028 min⁻¹

Cc1cc(O)c(C(C)C)cc1C1(c2cc(C(C)C)c(OP(=O)(O)O)cc2C)OS(=O)(=O)c2ccccc21 (stereo not drawn) [X, Thymol Blue Monophosphate Cyclohexylammonium Salt]
absorbance rate at 600 nm (alkaline phosphatase [1]; [5]): 0.0427 min⁻¹ | stability of solid by TLC ([2]; after one month standing at room temperature): Thymol Blue was detected on TLC indicating decomposition | hygroscopicity ([3]; orange solid product): hygroscopic
